From the supplement of paper PMC11061612

Legend:
Assay in all cases: combination Emax (second highest fraction inhibited in the dose matrix, 72 h); higher = more inhibition; extreme values may be limits of the assay
[1] = system: HT55 (Colorectal Carcinoma)
Summary of the method: (§1)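 Bliss excess equals the observed combination effect minus the expected value EA + EB − EA·EB, where EA and EB are the effects of each agent alone. Combination Emax is the second-highest inhibition within the matrix. Inhibition was scaled from CellTiter-Glo 2.0 luminescence, with 0 set by vehicle wells and 1 by blank wells, after 72 hours of two-drug dosing of cells plated in 1536-well plates.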

[2] = system: Jurkat (T-Lymphoblastic Leukemia)
Summary of the method: as §1

[3] = system: huH-1 (Hepatocellular Carcinoma)
Summary of the method: as §1

[4] = system: DU-4475 (Breast Carcinoma)
Summary of the method: as §1

EW-16 (Ewing's Sarcoma) = system: EW-16 (Ewing's Sarcoma)
Summary of the method: as §1

[5] = system: OACp4C (Esophageal Adenocarcinoma)
Summary of the method: as §1

[6] = system: LS-411N (Colorectal Carcinoma)
Summary of the method: as §1

[7] = system: G-402 (Other Solid Carcinomas)
Summary of the method: as §1

5637 (Bladder Carcinoma) = system: 5637 (Bladder Carcinoma)
Summary of the method: as §1

[8] = system: CESS (Acute Myeloid Leukemia)
Summary of the method: as §1

[9] = system: CA46 (Burkitt's Lymphoma)
Summary of the method: as §1

KP-N-YN (Neuroblastoma) = system: KP-N-YN (Neuroblastoma)
Summary of the method: as §1

| SMILES | combination Emax [1] | combination Emax [2] | combination Emax [3] | combination Emax [4] | combination Emax (EW-16 (Ewing's Sarcoma)) | combination Emax [5] | combination Emax [6] | combination Emax [7] | combination Emax (5637 (Bladder Carcinoma)) | combination Emax [8] | combination Emax [9] | combination Emax (KP-N-YN (Neuroblastoma)) |
| --- | --- | --- | --- | --- | --- | --- | --- | --- | --- | --- | --- | --- |
| CN(CCO)CC[C@H](CSc1ccccc1)Nc1ccc(S(=O)(=O)NC(=O)c2ccc(N3CCC([C@@H](O)c4ccccc4-c4ccc(Cl)cc4)CC3)cc2)cc1S(=O)(=O)C(F)(F)F [AZD4320] + Cc1cc2ncnn2cc1Nc1ncc2c(n1)n(C1CCOCC1)c(=O)n2C [AZD7648] (first compound max 1 µM, 7x7, partner max 10 µM) | 0.196 | 0.655 | 0.127 | 0.916 | 0.389 | 0.906 | 0.183 | 0.475 | 0.172 | 0.566 | 0.306 |  |
| Cc1cc2ncnn2cc1Nc1ncc2c(n1)n(C1CCOCC1)c(=O)n2C [AZD7648] + CCN(CCO)CCCOc1ccc2c(Nc3cc(CC(=O)Nc4cccc(F)c4)[nH]n3)ncnc2c1 [AZD2811] (first compound max 10 µM, 7x7, partner max 1 µM) | 0.229 | 0.232 | 0.561 | 0.23 | 0.445 | 0.63 | 0.208 | 0.663 | 0.648 | 0.243 | 0.418 | 0.6 |
| CN(CCO)CC[C@H](CSc1ccccc1)Nc1ccc(S(=O)(=O)NC(=O)c2ccc(N3CCC([C@@H](O)c4ccccc4-c4ccc(Cl)cc4)CC3)cc2)cc1S(=O)(=O)C(F)(F)F [AZD4320] + C[C@@H](Nc1cc(F)cc(F)c1)c1cc(C(=O)N(C)C)cc2c(=O)cc(N3CCOCC3)oc12 [AZD8186] (first compound max 1 µM, 7x7, partner max 3 µM) | 0.422 | 0.842 | 0.229 | 1 | 0.937 | 0.916 | 0.414 | 0.681 | 0.672 | 0.935 | 0.196 |  |
| Cc1cc2ncnn2cc1Nc1ncc2c(n1)n(C1CCOCC1)c(=O)n2C [AZD7648] + CN(C)CCCOc1ccc(-c2ccc3ncc4c(c3c2)n(C2CCOCC2)c(=O)n4C)cn1 [AZD0156] (first compound max 10 µM, 7x7, partner max 1 µM) | 0.169 | 0.23 | 0.3 | 0.0619 | 0.192 | 0.329 | 0.115 | 0.51 | 0.153 | 0.367 | 0.288 | 0.265 |
| Cc1cc2ncnn2cc1Nc1ncc2c(n1)n(C1CCOCC1)c(=O)n2C [AZD7648] + O=C(c1cc(Cc2n[nH]c(=O)c3ccccc23)ccc1F)N1CCN(C(=O)C2CC2)CC1 [Olaparib] (first compound max 10 µM, 7x7, partner max 10 µM) | 0.129 | 0.508 | 0.198 | 0.565 | 0.47 | 0.363 | 0.0674 | 0.41 | 0.25 | 0.37 | 0.221 | 0.346 |
| Cc1cc2ncnn2cc1Nc1ncc2c(n1)n(C1CCOCC1)c(=O)n2C [AZD7648] + C[C@@H]1COCCN1C2=NC(=NC(=C2)C3(CC3)[S@](=N)(=O)C)C4=C5C=CNC5=NC=C4 [AZD6738] (first compound max 10 µM, 7x7, partner max 10 µM) | 0.429 | 0.814 | 0.8 | 0.912 | 0.69 | 0.666 | 0.723 | 0.602 | 0.632 | 0.847 | 0.492 | 0.947 |
| CN(CCO)CC[C@H](CSc1ccccc1)Nc1ccc(S(=O)(=O)NC(=O)c2ccc(N3CCC([C@@H](O)c4ccccc4-c4ccc(Cl)cc4)CC3)cc2)cc1S(=O)(=O)C(F)(F)F [AZD4320] + C1CN(CCC1(C(=O)N[C@@H](CCO)C2=CC=C(C=C2)Cl)N)C3=NC=NC4=C3C=CN4 [Capivasertib] (first compound max 1 µM, 7x7, partner max 3 µM) | 0.292 | 0.883 | 0.197 | 0.883 | 0.461 | 0.954 | 0.543 | 0.327 | 0.328 | 0.69 | 0.251 |  |
| COc1cc2c(cc1OCCCCCOc1cc3c(cc1OC)C(=O)N1C=C(C)C[C@H]1C=N3)N=C[C@@H]1CC(C)=CN1C2=O [SG3199] + O=C(c1cc(Cc2n[nH]c(=O)c3ccccc23)ccc1F)N1CCN(C(=O)C2CC2)CC1 [Olaparib] (first compound max 0.001 µM, 7x7, partner max 10 µM) | 0.149 | 0.356 | 0.142 | 0.838 | 0.445 | 0.136 | 0.0262 | 0.364 | 0.187 | 0.182 | 0.157 | 0.341 |
| Cc1cc2ncnn2cc1Nc1ncc2c(n1)n(C1CCOCC1)c(=O)n2C [AZD7648] + C=CCn1c(=O)c2cnc(Nc3ccc(N4CCN(C)CC4)cc3)nc2n1-c1cccc(C(C)(C)O)n1 [AZD1775] (first compound max 10 µM, partner max 1 µM) | 0.341 | 0.886 | 0.746 | 0.88 | 0.448 | 0.814 | 0.574 | 0.543 | 0.792 | 0.919 | 0.693 | 0.942 |
| C[C@@H](c1ccc2nccn2c1)n1nnc2ncc(-c3cnn(C)c3)nc21 [Savolitinib] + CN(CC[C@H](CSC1=CC=CC=C1)NC2=C(C=C(C=C2)S(=O)(=O)NC(=O)C3=CC=C(C=C3)N4CCC(CC4)[C@H](C5=CC=CC=C5C6=CC=C(C=C6)Cl)O)S(=O)(=O)C(F)(F)F)CCO [AZD4320] (first compound max 1 µM, 7x7, partner max 1 µM) | 0.155 | 0.556 | 0.202 | 0.871 | 0.416 | 0.78 | 0.277 | 0.187 | 0.179 | 0.291 | 0.0638 |  |
| CN(CCO)CC[C@H](CSc1ccccc1)Nc1ccc(S(=O)(=O)NC(=O)c2ccc(N3CCC([C@@H](O)c4ccccc4-c4ccc(Cl)cc4)CC3)cc2)cc1S(=O)(=O)C(F)(F)F [AZD4320] + Cn1cnc2c(F)c(Nc3ccc(Br)cc3Cl)c(C(=O)NOCCO)cc21 [Selumetinib] (first compound max 1 µM, 7x7, partner max 3 µM) | 0.721 | 0.798 | 0.291 | 1 | 0.913 | 0.967 | 0.907 | 0.553 | 0.782 | 0.95 | 0.19 |  |
| CN(CCO)CC[C@H](CSc1ccccc1)Nc1ccc(S(=O)(=O)NC(=O)c2ccc(N3CCC([C@@H](O)c4ccccc4-c4ccc(Cl)cc4)CC3)cc2)cc1S(=O)(=O)C(F)(F)F [AZD4320] + CCN(CCO)CCCOc1ccc2c(Nc3cc(CC(=O)Nc4cccc(F)c4)[nH]n3)ncnc2c1 [AZD2811] (first compound max 1 µM, 7x7, partner max 1 µM) | 0.376 | 0.512 | 0.297 | 0.971 | 0.973 | 0.863 | 0.567 | 0.776 | 0.898 | 0.937 | 0.356 |  |
| CC(=O)c1c(C)c2cnc(Nc3ccc(N4CCNCC4)cn3)nc2n(C2CCCC2)c1=O [Palbociclib] + CN(CC[C@H](CSC1=CC=CC=C1)NC2=C(C=C(C=C2)S(=O)(=O)NC(=O)C3=CC=C(C=C3)N4CCC(CC4)[C@H](C5=CC=CC=C5C6=CC=C(C=C6)Cl)O)S(=O)(=O)C(F)(F)F)CCO [AZD4320] (first compound max 10 µM, 7x7, partner max 1 µM) | 0.498 | 0.917 | 0.31 | 0.943 | 0.64 | 0.839 | 0.691 | 0.781 | 0.619 | 0.906 | 0.336 |  |
| CN(CCO)CC[C@H](CSc1ccccc1)Nc1ccc(S(=O)(=O)NC(=O)c2ccc(N3CCC([C@@H](O)c4ccccc4-c4ccc(Cl)cc4)CC3)cc2)cc1S(=O)(=O)C(F)(F)F [AZD4320] + C[C@@H]1COCCN1C2=NC(=NC(=C2)C3(CC3)[S@](=N)(=O)C)C4=C5C=CNC5=NC=C4 [AZD6738] (first compound max 1 µM, 7x7, partner max 10 µM) | 0.707 | 0.955 | 0.823 | 1 | 0.932 | 0.95 | 0.943 | 0.84 | 0.91 | 0.987 | 0.362 |  |
| CN(CCO)CC[C@H](CSc1ccccc1)Nc1ccc(S(=O)(=O)NC(=O)c2ccc(N3CCC([C@@H](O)c4ccccc4-c4ccc(Cl)cc4)CC3)cc2)cc1S(=O)(=O)C(F)(F)F [AZD4320] + C=CCn1c(=O)c2cnc(Nc3ccc(N4CCN(C)CC4)cc3)nc2n1-c1cccc(C(C)(C)O)n1 [AZD1775] (first compound max 1 µM, partner max 1 µM) | 0.899 | 0.993 | 0.613 | 1 | 0.904 | 0.938 | 0.938 | 0.491 | 0.979 | 1 | 0.667 |  |
| COc1nnc2ccc(N3CCC(c4ccc(OCCN5CCN(C)C(=O)[C@H]5C)cc4)CC3)nn12 [AZD5153] + CN(CC[C@H](CSC1=CC=CC=C1)NC2=C(C=C(C=C2)S(=O)(=O)NC(=O)C3=CC=C(C=C3)N4CCC(CC4)[C@H](C5=CC=CC=C5C6=CC=C(C=C6)Cl)O)S(=O)(=O)C(F)(F)F)CCO [AZD4320] (first compound max 1 µM, 7x7, partner max 1 µM) | 0.519 | 0.975 | 0.354 | 1 | 0.674 | 0.918 | 0.978 | 0.846 | 0.957 | 0.841 | 0.598 |  |
